Data: PubChem BioAssay AID1963422 (Molecular Pharmacology Branch, DTP, NCI, 2024)

Tested on: 463943-066-T-J2-PDC complex spheroid growth
Assay: Anticancer human tumor 463943-066-T-J2-PDC patient-derived colon adenocarcinoma cell line growth inhibition [Asc]
Settings: for IC50: curve of first compound; for viability, T/C: stronger effect = lower value; active = viability on the fitted dose curve at most 10% of control; inactive = the rest
Outline: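 Spheroid model: tumor line + HUVEC + hMSC. Single agents and combinations; top conc. at/near clinical Cmax (10 microM if undetermined), half-log dilutions. DMSO stocks at 800-fold test concentration.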

[1] = second compound 0.00949 µM, first compound 0.0316 µM
[2] = second compound 0.00949 µM, first compound 0.1 µM
[3] = second compound 0.00949 µM, first compound 0.316 µM
[4] = second compound 0.00949 µM, first compound 1 µM
[5] = second compound 0.00949 µM, first compound 3.16 µM
[6] = second compound 0.00949 µM, first compound 10 µM
[7] = second compound 0.03 µM, first compound 0.0316 µM
[8] = second compound 0.03 µM, first compound 0.1 µM
[9] = second compound 0.03 µM, first compound 0.316 µM
[10] = second compound 0.03 µM, first compound 1 µM
[11] = second compound 0.03 µM, first compound 3.16 µM
[12] = second compound 0.03 µM, first compound 10 µM
[13] = second compound 0.0949 µM, first compound 0.0316 µM
[14] = second compound 0.0949 µM, first compound 0.1 µM
[15] = second compound 0.0949 µM, first compound 0.316 µM
[16] = second compound 0.0949 µM, first compound 1 µM
[17] = second compound 0.0949 µM, first compound 3.16 µM
[18] = second compound 0.0949 µM, first compound 10 µM
[19] = second compound 0.3 µM, first compound 0.0316 µM
[20] = second compound 0.3 µM, first compound 0.1 µM
[21] = second compound 0.3 µM, first compound 0.316 µM
[22] = second compound 0.3 µM, first compound 1 µM
[23] = second compound 0.3 µM, first compound 3.16 µM
[24] = second compound 0.3 µM, first compound 10 µM
[25] = second compound 0.949 µM, first compound 0.0316 µM
[26] = second compound 0.949 µM, first compound 0.1 µM
[27] = second compound 0.949 µM, first compound 0.316 µM
[28] = second compound 0.949 µM, first compound 1 µM
[29] = second compound 0.949 µM, first compound 3.16 µM
[30] = second compound 0.949 µM, first compound 10 µM
[31] = second compound 3 µM, first compound 0.0316 µM
[32] = second compound 3 µM, first compound 0.1 µM
[33] = second compound 3 µM, first compound 0.316 µM
[34] = second compound 3 µM, first compound 1 µM
[35] = second compound 3 µM, first compound 3.16 µM
[36] = second compound 3 µM, first compound 10 µM
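Also: compound exposure lasted 7 days.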
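For viability, T/C in this document: 100% = DMSO vehicle control wells.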

C#Cc1c(F)ccc2cc(O)cc(-c3ncc4c(N5CC6CCC(C5)N6)nc(OCC56CCCN5CC(F)C6)nc4c3F)c12 (stereo unspecified) + CCN1C(C(=O)NC23CCC(C(=O)O)(CC2)CC3)C(c2cccc(Cl)c2F)C2(C(=O)Nc3cc(Cl)ccc32)C12CCCCC2
inactive: viability, T/C [1] 94.4% | viability, T/C [2] 99.3% | viability, T/C [3] 94.3% | viability, T/C [4] 101% | viability, T/C [5] 108% | viability, T/C [6] 88.3% | viability, T/C [7] 102% | viability, T/C [8] 90.5% | viability, T/C [9] 94.1% | viability, T/C [10] 101% | viability, T/C [11] 103% | viability, T/C [12] 82.5% | viability, T/C [13] 91.5% | viability, T/C [14] 88.8% | viability, T/C [15] 94.2% | viability, T/C [16] 93% | viability, T/C [17] 91.7% | viability, T/C [18] 94.1% | viability, T/C [19] 88.4% | viability, T/C [20] 81.6% | viability, T/C [21] 87% | viability, T/C [22] 83% | viability, T/C [23] 83.1% | viability, T/C [24] 85.4% | viability, T/C [25] 74% | viability, T/C [26] 73% | viability, T/C [27] 78.8% | viability, T/C [28] 77.9% | viability, T/C [29] 75.3% | viability, T/C [30] 71.2% | viability, T/C [31] 70% | viability, T/C [32] 71.8% | viability, T/C [33] 70.5% | viability, T/C [34] 73.3% | viability, T/C [35] 72.1% | viability, T/C [36] 67.6%
> 10 µM: IC50 (second compound 0.00949 µM) | IC50 (second compound 0.03 µM) | IC50 (second compound 0.0949 µM) | IC50 (second compound 0.3 µM) | IC50 (second compound 0.949 µM) | IC50 (second compound 3 µM)

C=C(F)C(=O)N1CCN(c2nc(OCC3CCCN3C)nc3c2CCN(c2cccc4cccc(Cl)c24)C3)CC1CC#N (stereo unspecified) + CCN1C(C(=O)NC23CCC(C(=O)O)(CC2)CC3)C(c2cccc(Cl)c2F)C2(C(=O)Nc3cc(Cl)ccc32)C12CCCCC2
6.01 µM: IC50 (second compound 0.3 µM)
inactive: viability, T/C [1] 97.4% | viability, T/C [2] 92.9% | viability, T/C [3] 103% | viability, T/C [4] 104% | viability, T/C [5] 91.9% | viability, T/C [6] 17.2% | viability, T/C [7] 93.4% | viability, T/C [8] 93.9% | viability, T/C [9] 93.1% | viability, T/C [10] 101% | viability, T/C [11] 97.3% | viability, T/C [12] 20.3% | viability, T/C [13] 91.7% | viability, T/C [14] 87.3% | viability, T/C [15] 88.3% | viability, T/C [16] 97.8% | viability, T/C [17] 87.3% | viability, T/C [18] 23.9% | viability, T/C [19] 82% | viability, T/C [20] 85.4% | viability, T/C [21] 83.6% | viability, T/C [22] 90.5% | viability, T/C [23] 79.1% | viability, T/C [24] 26.3% | viability, T/C [25] 71.9% | viability, T/C [26] 81% | viability, T/C [27] 76% | viability, T/C [28] 83.6% | viability, T/C [29] 78.1% | viability, T/C [30] 30.8% | viability, T/C [31] 70.8% | viability, T/C [32] 71.5% | viability, T/C [33] 74% | viability, T/C [34] 78.9% | viability, T/C [35] 77.5% | viability, T/C [36] 28%
6.36 µM: IC50 (second compound 0.03 µM)
6.05 µM: IC50 (second compound 0.00949 µM)
5.8 µM: IC50 (second compound 3 µM)
6.24 µM: IC50 (second compound 0.0949 µM)
6.26 µM: IC50 (second compound 0.949 µM)

CNC(C)C(=O)NC1CN(S(=O)(=O)c2cccc(S(=O)(=O)N3CCC4CCC(C(=O)NC(c5ccccc5)c5ccccc5)N4C(=O)C(NC(=O)C(C)NC)C3)c2)CCC2CCC(C(=O)NC(c3ccccc3)c3ccccc3)N2C1=O (stereo unspecified) + CCN1C(C(=O)NC23CCC(C(=O)O)(CC2)CC3)C(c2cccc(Cl)c2F)C2(C(=O)Nc3cc(Cl)ccc32)C12CCCCC2
> 1 µM: IC50 (second compound 0.00949 µM) | IC50 (second compound 0.03 µM) | IC50 (second compound 0.0949 µM) | IC50 (second compound 0.3 µM) | IC50 (second compound 0.949 µM) | IC50 (second compound 3 µM)
inactive: viability, T/C (second compound 0.00949 µM, first compound 0.00316 µM) 96.9% | viability, T/C (second compound 0.00949 µM, first compound 0.01 µM) 93.3% | viability, T/C [1] 99.3% | viability, T/C [2] 93.7% | viability, T/C [3] 95.9% | viability, T/C [4] 86.8% | viability, T/C (second compound 0.03 µM, first compound 0.00316 µM) 103% | viability, T/C (second compound 0.03 µM, first compound 0.01 µM) 96.6% | viability, T/C [7] 89.4% | viability, T/C [8] 93.2% | viability, T/C [9] 95% | viability, T/C [10] 85% | viability, T/C (second compound 0.0949 µM, first compound 0.00316 µM) 94.2% | viability, T/C (second compound 0.0949 µM, first compound 0.01 µM) 93.2% | viability, T/C [13] 81.9% | viability, T/C [14] 89.3% | viability, T/C [15] 91.8% | viability, T/C [16] 86.1% | viability, T/C (second compound 0.3 µM, first compound 0.00316 µM) 83.8% | viability, T/C (second compound 0.3 µM, first compound 0.01 µM) 81.1% | viability, T/C [19] 82.1% | viability, T/C [20] 81.9% | viability, T/C [21] 84.6% | viability, T/C [22] 81% | viability, T/C (second compound 0.949 µM, first compound 0.00316 µM) 73.1% | viability, T/C (second compound 0.949 µM, first compound 0.01 µM) 85.1% | viability, T/C [25] 76.1% | viability, T/C [26] 75.8% | viability, T/C [27] 76.8% | viability, T/C [28] 71.5% | viability, T/C (second compound 3 µM, first compound 0.00316 µM) 71.1% | viability, T/C (second compound 3 µM, first compound 0.01 µM) 73.2% | viability, T/C [31] 74.7% | viability, T/C [32] 69.3% | viability, T/C [33] 75.5% | viability, T/C [34] 69.4%
